Laboratory results published in patent publication US7691416B2, “Methods of treating vascular disease” (priority 2002, dated 2010).

What was measured:
PAI-1 = test: Western blot of PAI-1 in SMC; assay type: cell-based; conditions: CO 250 ppm, 24 or 48 hours
From the text: (§1) Animals. Male (250-350 g) Brown Norway rats (RT1^n) were used as aortic graft donors and male (250-350 g) Lewis rats (RT11) as recipients. Dawley (400-450 g) rats were used in the balloon injury model. Adult male C57BL/6, C57/S129, p21^−/− and p53^−/− null mice were purchased from Jackson Laboratory (Bar Harbor, Me.). mkk3^(−/−) null mice were generated as described Lu et al. (EMBO. 18:1845-1857 (1999)). The inos^−/− and enos^−/− mice were bred at the University of Pittsburgh. Aortic transplant model. Aortic transplantation was performed as described in Shimizu et al. (Nat. Med. 7:738-741 (2001)). Briefly, 3 to 4 cm of descending aorta was harvested from the donor and implanted between the renal arteries and the aortic bifurcation of the recipient. Both edges of the native abdominal aorta were ligated. Balloon injury model. Balloon angioplasty was carried out as described in Murakami et al. (Atherosclerosis 157:361-368 (2001)). […] [^3H]thymidine incorporation was measured by scintillation spectroscopy and presented as mean counts/min/well. […] Areas from eight to ten captured images were calculated using digital imaging software as number of pixels corresponding to those areas. Twenty-four to forty-eight sections from each group were statistically analyzed with SPSS software version 10. […]

JNK-1 and -2 = test: Western blot of phosphorylated JNK in SMC; assay type: cell-based; conditions: SMC exposed to CO (250 ppm)
From the text: as §1

SMC = test: Trypan blue and propidium iodide exclusion analyses; assay type: cell-based; conditions: SMC exposed to CO
From the text: as §1

p21Cip1 = test: Western blot of p21Cip1 expression; assay type: cell-based, mouse
From the text: Animals. Male (250-350 g) Brown Norway rats (RT1^n) were used as aortic graft donors and male (250-350 g) Lewis rats (RT11) as recipients. Dawley (400-450 g) rats were used in the balloon injury model. Adult male C57BL/6, C57/S129, p21^−/− and p53^−/− null mice were purchased from Jackson Laboratory (Bar Harbor, Me.). mkk3^(−/−) null mice were generated as described Lu et al. (EMBO. 18:1845-1857 (1999)). The inos^−/− and enos^−/− mice were bred at the University of Pittsburgh. Aortic transplant model. Aortic transplantation was performed as described in Shimizu et al. (Nat. Med. 7:738-741 (2001)). Briefly, 3 to 4 cm of descending aorta was harvested from the donor and implanted between the renal arteries and the aortic bifurcation of the recipient. Both edges of the native abdominal aorta were ligated. Balloon injury model. Balloon angioplasty was carried out as described in Murakami et al. (Atherosclerosis 157:361-368 (2001)). Briefly, a 2 Fr. arterial embolectomy catheter (Baxter, Chicago, Ill.) was inserted into the common carotid artery, and injury was created by inflating the balloon to 5 atmospheres of pressure for 5 minutes. The arteries were flushed and the external carotid artery was ligated, ensuring return of blood flow through the common and internal carotid arteries. Injury of the vessel wall and subsequent pathological analysis was made in a manner that was blinded to the treatment group. CO exposure. CO was delivered to animals as described in Otterbein et al. (Nat. Med. 6:422-428 (2000)). Graft donors and recipients were exposed to CO (250 ppm) for two days before transplantation and for 56 days immediately following transplantation. In the balloon injury model, rats received either no pretreatment or were exposed to CO (250 ppm) for one hour prior to injury. Following surgery rats were housed in room air for two weeks. Cells. Primary mouse and rat smooth muscle cells (SMC) were isolated and cultured as described in Laubach et al. (Proc Natl Acad Sci USA 92:10688-9 (1995)). Mouse SMC isolated from HO-1^−/− mice were obtained as described in Duckers et al. (Nat. Med. 7:693-698 (2001)). Cell treatment and reagents. Guanylate cyclase inhibitor 1H(1,2,4) oxadiazolo(4,3-a)quinoxalin-1 (ODQ; Calbiochem-Novabiochem, San Diego, Calif.; 10-100 μM) and p38 MAPK inhibitor pyridinyl imidazol SB203580 (Calbiochem; 5-20 μM) were dissolved in DMSO. The cGMP analogue 8-bromo-cGMP sodium salt (8-Br-cGMP; Sigma-Aldrich, St. Louis, Mo.; 10-100 μM) and the PKG inhibitor (10-100 μM; Alexis Biochemicals) were dissolved in water. Cell counts and [^3H] thymidine incorporation. Rat and mouse SMC were isolated and cultured as described in Peyton et al. (Blood 99:4443-4448 (2002)). Proliferation assays were carried out as described in Petkova et al. (J Biol. Chem. 276:7932-7936 (2001)). For [^3H] thymidine incorporation studies, cells were serum-starved overnight and then stimulated with 10% serum containing 5 μCi/ml [^3H] thymidine (New England Nuclear, Boston Mass.). [^3H]thymidine incorporation was measured by scintillation spectroscopy and presented as mean counts/min/well. Histomorphometric analysis. Aortic grafts and carotid arteries were harvested at 56 and 14 days respectively. Vessels were fixed, embedded, and serially sectioned (5μ) in toto. Every third slide was stained with Hematoxylin and Eosin (H&E) for histomorphometric analyses. In both models, one or two images per slide at a resolution of 1520×1080 pixels were captured at a magnification of 25× with a Zeiss microscope (Axioskop, Iowa City, Iowa), RT color SPOT (Diagnostic Instrument, Inc., Saint Joseph, Mich.) and Windows NT (Compaq Computer) using Adobe Photoshop version 5.5 software. Areas from eight to ten captured images were calculated using digital imaging software as number of pixels corresponding to those areas. Twenty-four to forty-eight sections from each group were statistically analyzed with SPSS software version 10. Immunostaining and cell population histomorphometric analysis. […]

rat SMC = test: SMC proliferation, cell counts; assay type: cell-based
From the text: as §1

[C-]#[O+] [CO, carbon monoxide]
PAI-1 protein (PAI-1): slightly increased
Activation of JNK-1 and -2 (JNK-1 and -2): induced activation
Cell death accompanying inhibition of SMC proliferation (SMC): not associated with cell death
Time of maximal p21Cip1 expression after CO exposure (p21Cip1; CO 250 ppm, increased by 4 hours, basal at 24 hours): 16 h
p21Cip1 protein expression (p21Cip1; SMC exposed to CO (250 ppm)): up-regulated
Reversibility of the anti-proliferative effect (rat SMC; cessation of CO exposure (250 ppm) on day 6): reversible
SMC proliferation (rat SMC; exposure to CO (1000 ppm, FIG. 4B)): suppressed
